From paper PMC8070829, “Discovery of New Coumarin-Based Lead with Potential Anticancer, CDK4 Inhibition and Selective Radiotheranostic Effect: Synthesis, 2D & 3D QSAR, Molecular Dynamics, In Vitro Cytotoxicity, Radioiodination, and Biodistribution Studies” (Molecules, 2021)
Like-named read-outs stand apart in the source and are kept apart here.

Key:
[1] = system: A-549 cells; assay: In vitro cytotoxicity, A-549; format: cell-based; details: Homo sapiens, A549; A-549 cell line
From the text: (§1) Mammalian cell lines: MCF-7 cells (human breast cancer) cell line, A-549 (human Lung Carcinoma) and CHO-K1 cells (hamster ovary cancer) cell line were obtained from the American Type Culture Collection (ATCC, Rockville, MD). Fetal bovine serum, RPMI-1640, HEPES buffer solution, L-glutamine, gentamycin and 0.25% Trypsin-EDTA were purchased from Lonza (Belgium). All reagents and chemicals were of pharmaceutical pure grade. Non-carrier added Na^131I solution (pH = 7) was purchased from the Research and Production Facility, The Egyptian Atomic Energy Authority. Chemicals were purchased from Sigma Aldrich and Lonza. Monitoring of chemical reactions was done by using analytical TLC with Merck 60 F-254 silica-gel plates (Merck, Germany), and visualization was done with ultraviolet light.
(§2) Cytotoxicity study was performed at the Regional Centre for Mycology and Biotechnology (RCMB), Al-Azhar University. Mammalian cell lines: human breast cancer cell line (MCF-7 cells), human colon cancer cell line (HCT-116 cells), and human lung cancer cell line (A-549 cells) were obtained from VACSERA Tissue Culture Unit, Cairo, Egypt. The cells were propagated in Dulbecco’s modified Eagle’s medium supplemented with 10% heat-inactivated fetal bovine serum, 1% L-glutamine, HEPES buffer, and 50 μg/mL gentamycin. All cells were maintained at 37 °C in a humidified atmosphere with 5% CO2 and were subcultured two times a week. For the cytotoxicity assay, the cells were seeded in 96-well plate at a cell concentration of 1 × 10^4 cells per well in 100 μL of growth medium. Fresh medium containing different concentrations of the test sample was added after 24 h of seeding. Serial two-fold dilutions of the tested chemical compound were added to confluent cell monolayers dispensed into 96-well, flat-bottomed microtiter plates (Falcon, NJ, USA) using a multichannel pipette. The microtiter plates were incubated at 37 °C in a humidified incubator with 5% CO2 for a period of 48 h. Three wells were used for each concentration of the test sample. Control cells were incubated without test sample and with or without DMSO. The little percentage of DMSO present in the wells (maximal 0.1%) was found not to affect the experiment. After incubation of the cells for at 37 °C, various concentrations of sample were added, and the incubation was continued for 24 h, and viable cells yield was determined by a colorimetric method. In brief, after the end of the incubation period, media were aspirated, and the crystal violet solution (1%) was added to each well for at least 30 min. The stain was removed, and the plates were rinsed using tap water until all excess stain is removed. Glacial acetic acid (30%) was then added to all wells and mixed thoroughly, and then the absorbance of the plates was measured after gently shaken on a microplate reader, using a test wavelength of 490 nm. All results were corrected for background absorbance detected in wells without added stain. Treated samples were compared with the cell control in the absence of the tested compound. All experiments were carried out in triplicate. The cell cytotoxic effect of each tested compound was calculated. The optical density was measured with the microplate reader to determine the number of viable cells, and the percentage of […] was calculated as (1 − (ODt/ODc)) × 100% where ODt is the mean optical density of wells treated with the tested sample and ODc is the mean optical density of untreated cells. The relation between surviving cells and drug concentration is plotted to get the survival curve of each tumor cell line after treatment with the specified compound.

[2] = system: CHO-K1 cells; assay: In vitro cytotoxicity, CHO-K1; format: cell-based, hamster; details: CHO-K1 ovarian cell line
From the text: as §1, §2

[3] = target: T1, CDK4 enzyme (Homo sapiens, UniProt P11802); assay: CDK4 enzyme inhibition assay; format: biochemical
T1 construct: purchased Reaction Biology Corp. (Kinase HotSpot service)
Description: Reaction Biology Corp. Kinase HotSpotSM service (http://www.reactionbiology.com, accessed on 1 April 2019) was used for screening of tested compounds. CDK4 Kinase inhibitory activities were assessed by the HotSpot assay platform, which contained specific kinase/substrate pairs along with required cofactors. Base reaction buffer: 20 mM Hepes (pH 7.5), 10 mM MgCl2, 1 mM EGTA, 0.02% Brij35, 0.02 mg/mL BSA, 0.1 mM Na3VO4, 2 mM DTT, 1% DMSO. Testing compounds were dissolved in 100% DMSO to specific concentration. The serial dilution was conducted in DMSO. The reaction mixture containing the examined compound and 33P-ATP was incubated at room temperature for 2 h and radioactivity was detected by the filter-binding method. Kinase activity data were expressed as the percent remaining kinase activity in test samples compared to vehicle (dimethyl sulfoxide) reactions.
For CDK4 enzyme inhibition, CDK4 ELISA kit, Cloud-Clone Corp, US was used. This kit is used for the in vitro quantitative measurement of CDK4 concentrations in tissue homogenates, cell lysates and other biological fluids with high sensitivity and specificity. The cancer cells were treated with different amounts of each compound according to the aforementioned protocol. In addition, the cells were lysed and then treated as instructed by the manufacturer’s protocol. The absorbance of each well was detected at 450 nm using an ELISA plate reader. The results are reported as half maximal inhibitory concentration (IC50).

[4] = system: MCF-7 cells; assay: In vitro cytotoxicity, MCF-7; format: cell-based; details: Homo sapiens, MCF7, MCF-7 breast cancer cell line
From the text: as §1, §2

[5] = target: CDK4; details: cited from earlier work
[6] = target: CDK6; details: cited from earlier work
[7] = system: CDK4; details: cited from earlier work; remark: listed apart in the source
[8] = N-aryl aminothiazoles, in vitro

T1 sequence (P11802 whole entry): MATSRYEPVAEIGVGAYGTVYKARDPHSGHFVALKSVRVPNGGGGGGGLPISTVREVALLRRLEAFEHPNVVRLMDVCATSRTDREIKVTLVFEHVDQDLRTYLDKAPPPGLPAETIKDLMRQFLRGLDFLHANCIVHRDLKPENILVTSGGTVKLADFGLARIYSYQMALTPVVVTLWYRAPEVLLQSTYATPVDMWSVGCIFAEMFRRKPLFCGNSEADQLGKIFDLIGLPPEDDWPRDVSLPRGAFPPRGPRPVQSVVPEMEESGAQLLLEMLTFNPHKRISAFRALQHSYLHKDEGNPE
T1 sequence (P24385 whole entry partner): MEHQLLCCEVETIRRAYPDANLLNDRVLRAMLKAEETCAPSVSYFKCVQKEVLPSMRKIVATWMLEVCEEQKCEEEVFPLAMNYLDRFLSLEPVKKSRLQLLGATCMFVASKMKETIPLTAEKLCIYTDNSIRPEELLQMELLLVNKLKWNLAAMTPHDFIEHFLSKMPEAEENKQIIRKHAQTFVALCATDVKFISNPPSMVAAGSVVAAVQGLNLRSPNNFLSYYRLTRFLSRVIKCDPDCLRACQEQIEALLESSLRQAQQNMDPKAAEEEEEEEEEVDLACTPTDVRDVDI

SMILES	IC50 [1]	IC50 [2]	IC50 [4]	melting point	also measured
C/C(=N\NC(=S)Nc1ccccc1)c1cc2cc(Br)ccc2oc1=O [Compound 2b]	15 nM	54 nM			IC50 [3]: 36 nM
CN1CC[C@H](c2c(O)cc(O)c3c(=O)cc(-c4ccccc4Cl)oc23)[C@H](O)C1 [Flavopiridol, reference compound]	1.14 nM	2.41 nM	4.45 nM		
CC(=NN=C1SC(CC(=O)O)C(=O)N1C)c1cc2cc(Br)ccc2oc1=O (stereo not shown) [Compound 6a, 2-(2-((1-(6-Bromo-2-oxo-2H-chromen-3-yl)ethylidene)hydrazono)-3-methyl-4-oxothiazolidin-5-yl)acetic acid]	95 nM	131 nM	55 nM	280 °C	
Cc1ccc(C=NNc2nc(-c3cc4cc(Br)ccc4oc3=O)cs2)o1 [Compound 9h]	340 nM	574 nM	534 nM		
Cc1ccc(C=NNc2nc(-c3cc4cc(Br)ccc4oc3=O)cs2)cc1 [Compound 9b]	386 nM	522 nM	295 nM	250 °C	
CSc1nc(C)c(-c2ccnc(Nc3ccc(N4CCN(C)CC4)cn3)n2)s1 [VIIa]					Ki [5]: 7 nM; Ki [6]: 42 nM
CC(=NN=c1scc(-c2ccccc2)n1-c1ccccc1)c1cc2cc(Br)ccc2oc1=O [Compound 4b, 6-Bromo-3-(1-((3,4-diphenylthiazol-2(3H)-ylidene)hydrazono)ethyl)-2H-chromen-2-one]	784 nM	968 nM	861 nM	234 °C	
O=c1oc2ccc(Br)cc2cc1-c1csc(N/N=C/c2ccccc2)n1 [Compound 9a]	34 nM	91 nM	60 nM		IC50 [3]: 131 nM
O=c1oc2ccc(Br)cc2cc1-c1csc(NN=Cc2ccc(F)cc2)n1 [Compound 9f]	200 nM	495 nM	276 nM	278 °C	
CC(C)(C)c1cnc(CSc2cnc(Nc3ccc(S(=O)(=O)NCCO)cc3)s2)o1 [IX]					IC50 [7, 8]: 233 nM
CNC(=S)NN=C(C)c1cc2cc(Br)ccc2oc1=O [Compound 2a]	451 nM	604 nM	161 nM	220 °C	
CC(=NN=c1scc(-c2ccc(Br)cc2)n1C)c1cc2cc(Br)ccc2oc1=O [Compound 5a, 6-Bromo-3-(1-((4-(4-bromophenyl)-3-methylthiazol-2(3H)-ylidene)hydrazono)ethyl)-2H-chromen-2-one]	54 nM	75 nM	102 nM		IC50 [3]: 142 nM
C/C(=N\N=c1/scc(-c2ccc(Br)cc2)n1-c1ccccc1)c1cc2cc(Br)ccc2oc1=O [Compound 5b, 6-Bromo-3-(1-((4-(4-bromophenyl)-3-phenylthiazol-2(3H)-ylidene)hydrazono)ethyl)-2H-chromen-2-one]	305 nM	414 nM	305 nM	229 °C	
O=c1oc2ccc(Br)cc2cc1-c1csc(NN=Cc2ccc([N+](=O)[O-])o2)n1 [Compound 9i]	75 nM	189 nM	124 nM		IC50 [3]: 193 nM
CSc1nc(C)c(-c2nc(Nc3ccc(N4CCN(C)CC4)cn3)ncc2C#N)s1 [VIIb]					Ki [5]: 4 nM; Ki [6]: 30 nM
CN(C)c1ccc(C=NNc2nc(-c3cc4cc(Br)ccc4oc3=O)cs2)cc1 [Compound 9e]	242 nM	507 nM	432 nM	253 °C	
c1cnc(Nc2ncc(-c3ccnc(OC4CCCCC4)n3)s2)nc1 [Va]					IC50 ([7]; 2-aminothiazoles of Banyu): 4.2 nM
CC(=NN=C1SC(CC(=O)O)C(=O)N1c1ccccc1)c1cc2cc(Br)ccc2oc1=O (stereo not shown) [Compound 6b, 2-(2-((1-(6-Bromo-2-oxo-2H-chromen-3-yl)ethylidene)hydrazono)-4-oxo-3-phenylthiazolidin-5-yl)acetic acid]	77 nM	101 nM	55 nM	251 °C	
CC(=NN=c1scc(-c2ccccc2)n1C)c1cc2cc(Br)ccc2oc1=O [Compound 4a, 6-Bromo-3-(1-((3-methyl-4-phenylthiazol-2(3H)-ylidene)hydrazono)ethyl)-2H-chromen-2-one]	537 nM	757 nM	360 nM	200 °C	
Cc1cc(-c2cnc(Nc3nccc(CN4CCN(C)CC4)n3)s2)nc(OC2CCCCC2)n1 [Vc]					IC50 ([7]; 2-aminothiazoles of Banyu): 9.2 nM
COc1ccc(C=NNc2nc(-c3cc4cc(Br)ccc4oc3=O)cs2)cc1OC [Compound 9c]	244 nM	649 nM	479 nM	238 °C	
CC(=NN=C1SCC(=O)N1c1ccccc1)c1cc2cc(Br)ccc2oc1=O [Compound 3b]	56 nM	127 nM	116 nM		IC50 [3]: 127 nM
CC(=NN=C1SCC(=O)N1C)c1cc2cc(Br)ccc2oc1=O [Compound 3a]	560 nM	735 nM	138 nM	250 to 252 °C	
O=c1oc2ccc(Br)cc2cc1-c1csc(NN=Cc2ccc([N+](=O)[O-])cc2)n1 [Compound 9d]	513 nM	901 nM	780 nM		
CC(C)(CO)CNCc1ccc(Nc2ncc(SCc3ncc(C(C)(C)C)o3)s2)nc1 [VIII]					IC50 [7, 8]: 26 nM
Cc1cc(-c2cnc(Nc3ncccn3)s2)nc(OC2CCCCC2)n1 [Vb]					IC50 ([7]; 2-aminothiazoles of Banyu): 34 nM
O=c1oc2ccc(Br)cc2cc1-c1csc(NN=Cc2ccc(Br)cc2)n1 [Compound 9g]	441 nM	744 nM	488 nM	267 °C	
